Assay results reported in PubChem BioAssay AID1159605 (The Scripps Research Institute Molecular Screening Center, 2016).
Active and inactive are the calls of the source.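 The calls were made as follows: active = IC50 of 10 µM or lower; inactive = IC50 above 10 µM.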

Molecular target: Mitogen-activated protein kinase kinase kinase 5 (Homo sapiens) (UniProt Q99683)
Experiment: ASK1 kinase inhibitor potency, dose response, biochemical, AlphaScreen, MKK6 phosphorylation (AID 1159605);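 also: ASK1 phosphorylation of MKK6 substrate detected with anti-phospho-MKK6 antibody beads; inhibitors lower the luminescent signal by blocking MKK6 phosphorylation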
Details: AlphaScreen luminescence

Chain of Mitogen-activated protein kinase kinase kinase 5 (Homo sapiens) (Q99683 whole entry, looked up): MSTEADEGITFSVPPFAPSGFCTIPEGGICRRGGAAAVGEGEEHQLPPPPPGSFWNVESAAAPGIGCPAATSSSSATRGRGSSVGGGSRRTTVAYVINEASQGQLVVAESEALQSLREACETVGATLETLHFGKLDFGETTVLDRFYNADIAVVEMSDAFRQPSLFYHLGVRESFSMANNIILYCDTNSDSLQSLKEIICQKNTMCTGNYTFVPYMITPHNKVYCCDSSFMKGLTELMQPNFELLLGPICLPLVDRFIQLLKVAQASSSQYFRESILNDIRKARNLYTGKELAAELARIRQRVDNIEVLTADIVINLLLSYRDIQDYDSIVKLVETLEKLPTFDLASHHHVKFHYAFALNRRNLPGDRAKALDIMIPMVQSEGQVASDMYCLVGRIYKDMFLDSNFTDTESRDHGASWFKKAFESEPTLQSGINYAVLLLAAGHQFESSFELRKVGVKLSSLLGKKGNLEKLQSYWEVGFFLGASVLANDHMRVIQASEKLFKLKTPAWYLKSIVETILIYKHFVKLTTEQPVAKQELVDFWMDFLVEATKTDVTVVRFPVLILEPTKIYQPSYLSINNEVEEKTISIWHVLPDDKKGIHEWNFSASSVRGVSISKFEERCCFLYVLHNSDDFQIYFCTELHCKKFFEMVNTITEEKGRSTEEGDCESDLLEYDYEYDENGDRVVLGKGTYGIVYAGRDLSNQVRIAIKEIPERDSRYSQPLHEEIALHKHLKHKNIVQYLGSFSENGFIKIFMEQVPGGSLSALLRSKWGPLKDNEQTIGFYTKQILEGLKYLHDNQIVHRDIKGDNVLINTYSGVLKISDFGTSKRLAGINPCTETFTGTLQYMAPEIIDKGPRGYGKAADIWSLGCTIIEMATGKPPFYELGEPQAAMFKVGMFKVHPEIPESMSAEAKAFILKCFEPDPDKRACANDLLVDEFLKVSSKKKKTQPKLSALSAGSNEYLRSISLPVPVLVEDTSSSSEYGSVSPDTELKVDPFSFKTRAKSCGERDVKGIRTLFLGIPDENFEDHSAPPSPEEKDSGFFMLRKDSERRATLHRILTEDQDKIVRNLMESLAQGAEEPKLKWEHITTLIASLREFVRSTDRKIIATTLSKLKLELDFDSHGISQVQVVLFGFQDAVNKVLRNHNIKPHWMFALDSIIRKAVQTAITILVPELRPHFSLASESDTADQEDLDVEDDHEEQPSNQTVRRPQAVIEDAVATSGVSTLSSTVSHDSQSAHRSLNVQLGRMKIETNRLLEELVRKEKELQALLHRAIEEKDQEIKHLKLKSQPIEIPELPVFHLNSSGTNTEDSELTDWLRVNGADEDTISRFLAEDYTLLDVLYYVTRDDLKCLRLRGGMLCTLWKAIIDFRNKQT

With COc1ccc(-c2ncn(-c3ccc(Nc4nccc(-c5cc(C#N)cc(N6CCNCC6)c5)n4)cc3)n2)cn1 the IC50 was > 19.2 µM (inactive).
Work on FC(F)(F)c1cccc(CNc2nc(Nc3ccc(N4CCOCC4)cc3)nc3c2ncn3-c2ccsc2)c1 yielded an IC50 of 8.62 µM.
For c1ccc(-n2cnc3c(NCc4cccnc4)nc(Nc4ccc(N5CCOCC5)cc4)nc32)cc1, the IC50 was “inactive”.
For COc1cc2nc(NC3CCN(Cc4ccccc4)CC3)nc(Nc3ccc(N4CCOCC4)cc3)c2cc1OC, the IC50 was “inactive”.
In the case of CC(C)n1c(Nc2cccc(N(C)C)c2)nc2c(NC3CCN(Cc4ccccc4)CC3)ncnc21, the IC50 is reported as > 18.8 µM (inactive).
In the case of c1ccc(CN2CCC(Nc3ccnc(Nc4ccc(N5CCOCC5)cc4)n3)CC2)cc1, the IC50 is reported as “inactive”.
With FC(F)(F)c1ccc(Cn2cnc3c(NCc4cccc(C(F)(F)F)c4)nc(Nc4ccc5ncccc5c4)nc32)cc1 the IC50 was > 19.8 µM (inactive).
In the case of FC(F)(F)c1cccc(CNc2ccnc(Nc3ccc(N4CCOCC4)cc3)n2)c1, the IC50 is reported as “inactive”.
Compound COc1cc2nc(Nc3cccc(N(C)C)c3)nc(Nc3ccc4c(c3)OCO4)c2cc1OC has an IC50 of 6.21 µM.
With FC(F)(F)c1ccc(Cn2cnc3c(NC4CCN(Cc5ccccc5)CC4)nc(Nc4ccc(N5CCOCC5)cc4)nc32)cc1 the IC50 was “inactive”.
COc1cc2nc(Nc3ccccc3)nc(Nc3ccc(N4CCOCC4)cc3)c2cc1OC was tested, and the IC50 was > 24 µM (inactive).
With COc1cc(Nc2nc(-c3ccc(C(N)=O)cc3)nc3c2ncn3C2CCCCC2)cc(OC)c1OC the IC50 was “inactive”.
Oc1ccc(CCNc2nc(N3CCN(Cc4ccc5c(c4)OCO5)CC3)nc3c2ncn3-c2ccsc2)cc1 was tested, and the IC50 was “inactive”.
CC(C)n1cnc2c(Nc3ccc(N4CCOCC4)cc3)nc(Nc3ccc(-n4ccnc4)cc3)nc21 was tested, and the IC50 was > 19.1 µM (inactive).
With Cc1cc(Nc2ccc3c(c2)OCO3)nc(Nc2ccc(N3CCOCC3)cc2)n1 the IC50 was “inactive”.
With COc1cc2nc(Nc3ccc(N4CCOCC4)cc3)nc(Nc3cc(OC)c(OC)c(OC)c3)c2cc1OC the IC50 was “inactive”.
With COc1cc2nc(Nc3ccc(N4CCOCC4)cc3)nc(NCc3ccccc3)c2cc1OC the IC50 was > 20 µM (inactive).
c1ccc(CN2CCC(Nc3nc(Nc4ccc(N5CCOCC5)cc4)nc4c3ncn4-c3ccsc3)CC2)cc1 was tested, and the IC50 was 9.41 µM.
In the case of CC(=O)c1cccc(-c2nc(NCc3ccccc3)c3ncn(Cc4ccc(C(F)(F)F)cc4)c3n2)c1, the IC50 is reported as > 19.2 µM (inactive).
For Cc1cccc(Nc2ccc3c(cnn3-c3cccc(C(=O)NCCN4CCN(CC5CC5)CC4)c3)c2)c1Cl, the IC50 was > 19.2 µM (inactive).
COc1cc2nc(Nc3cccc(N(C)C)c3)nc(NC3CC3)c2cc1OC was tested, and the IC50 was “inactive”.
CN(C)c1cccc(Nc2nc(NCCc3ccc(O)cc3)c3ncn(-c4ccccc4)c3n2)c1 was tested, and the IC50 was > 20 µM (inactive).
CN(C)c1cccc(Nc2nccc(NCCOc3ccccc3)n2)c1 was tested, and the IC50 was “inactive”.
CCN(CC)c1nc(Nc2ccc(N3CCOCC3)cc2)nc(N2CCN(Cc3ccc4c(c3)OCO4)CC2)n1 gave an IC50 of 8.17 µM.
c1ccc(OCCNc2nc(N3CCN(Cc4ccc5c(c4)OCO5)CC3)nc3c2ncn3C2CCCCC2)cc1 was tested, and the IC50 was “inactive”.
For c1ccc2c(c1)CCN(c1nccc(Nc3ccc(N4CCOCC4)cc3)n1)C2, the IC50 was “inactive”.
In the case of COc1cc2nc(Nc3nc4ccccc4n3C)nc(Nc3ccc(N4CCOCC4)cc3)c2cc1OC, the IC50 is reported as 8.95 µM.
For O=C(Nc1ccccc1)c1ccccc1Nc1ccnc(Nc2ccc(N3CCOCC3)cc2)c1, the IC50 was > 19.2 µM (inactive).
In the case of c1cc(-c2ccc3[nH]ncc3c2)nc(Nc2ccc(N3CCOCC3)cc2)n1, the IC50 is reported as > 19.2 µM (inactive).
For NC(=O)c1ccc(-c2nc(NCc3cccc(C(F)(F)F)c3)c3ncn(-c4ccccc4)c3n2)cc1, the IC50 was > 18 µM (inactive).
c1ccc(CN2CCC(Nc3nc(Nc4ccc(N5CCOCC5)cc4)nc4c3ncn4C3CCCCC3)CC2)cc1 was tested, and the IC50 was 7.91 µM.
In the case of CN(C)c1cccc(Nc2ccc(-n3cc(CC(=O)Nc4ccc(N5CCOCC5)cc4)c4ccccc43)nn2)c1, the IC50 is reported as > 20.1 µM (inactive).
In the case of FC(F)(F)c1cccc(CNc2nc(N3CCN(c4ccccn4)CC3)nc3c2ncn3-c2ccsc2)c1, the IC50 is reported as > 20 µM (inactive).
For COc1ccc2c(c1)CC(C(=O)Nc1ccc(-c3cn[nH]c3)cc1OCCOCc1ccccc1)CO2 (stereo not given), the IC50 was > 19.2 µM (inactive).
CC(C)n1cnc2c(NCc3cccc(C(F)(F)F)c3)nc(N3CCN(Cc4ccc5c(c4)OCO5)CC3)nc21 showed an IC50 of 8.82 µM.
Cc1cnc(-c2ccc(C(N)=O)cc2)nc1Nc1ccc(N2CCOCC2)cc1 was tested, and the IC50 was “inactive”.
COc1ccc(CCNc2nc(Nc3ccc(N4CCOCC4)cc3)nc3cc(OC)c(OC)cc23)cc1 was tested, and the IC50 was “inactive”.
Cc1n[nH]c(C)c1-c1cc(F)cc(-c2ccnc(Nc3ccc(-n4cnc(N5CCOCC5)n4)cc3)n2)c1 was tested, and the IC50 was > 19.2 µM (inactive).
For CCN(CC)c1nc(Nc2ccc(N3CCOCC3)cc2)nc(Nc2ccc(-n3ccnc3)cc2)n1, the IC50 was 8.79 µM.
CC(C)n1cnc2c(NCc3cccc(C(F)(F)F)c3)nc(Nc3ccc(N4CCOCC4)cc3)nc21 gave an IC50 of 5.42 µM.
CN(C)c1cccc(Nc2nccc(Nc3ccc4c(c3)OCO4)n2)c1 was tested, and the IC50 was “inactive”.
In the case of COc1cc(Nc2nc(N3CCc4ccccc4C3)nc3c2ncn3-c2ccccc2)cc(OC)c1OC, the IC50 is reported as “inactive”.
Cc1cnc(-c2csc3ccccc23)nc1Nc1ccc(N2CCOCC2)cc1 was tested, and the IC50 was > 20.1 µM (inactive).
For CC(C)n1cnc2c(Nc3ccc(N4CCOCC4)cc3)nc(N3CCN(Cc4ccc5c(c4)OCO5)CC3)nc21, the IC50 was “inactive”.
With COc1cc2nc(Nc3ccc(N4CCOCC4)cc3)nc(NCc3cccc(C(F)(F)F)c3)c2cc1OC the IC50 was > 20.1 µM (inactive).
With COc1ccc(CCNc2nc(Nc3ccc(N4CCOCC4)cc3)nc3c2ncn3-c2ccsc2)cc1 the IC50 was 9.53 µM.
COc1ccc(CCNc2nc(Nc3ccc(N4CCOCC4)cc3)nc3c2ncn3-c2ccccc2)cc1 showed an IC50 of 9.28 µM.
In the case of c1ccc(N2CCN(c3nc(Nc4ccc(N5CCOCC5)cc4)c4ncn(C5CCCCC5)c4n3)CC2)nc1, the IC50 is reported as > 22.8 µM (inactive).
For CC(C)n1cnc2c(Nc3ccc(N4CCOCC4)cc3)nc(N3CCN(c4ccccn4)CC3)nc21, the IC50 was “inactive”.
COc1cc2nc(Nc3ccc4ncccc4c3)nc(Nc3ccc(NC(C)=O)cc3)c2cc1OC was tested, and the IC50 was > 20 µM (inactive).
In the case of CN(C)c1cccc(Nc2nc(NCCc3ccc(O)cc3)c3ncn(Cc4ccc(C(F)(F)F)cc4)c3n2)c1, the IC50 is reported as “inactive”.
COc1cc2nc(Nc3ccc(-n4ccnc4)cc3)nc(Nc3ccc4c(c3)OCO4)c2cc1OC was tested, and the IC50 was > 20 µM (inactive).
c1ccc(CCn2nc(-c3ccnc(Nc4ccc(N5CCOCC5)cc4)c3)cc2Nc2ccccc2)cc1 was tested, and the IC50 was > 19.2 µM (inactive).
For COc1cc2nc(Nc3ccc(N4CCOCC4)cc3)nc(Nc3ccc4c(c3)OCO4)c2cc1OC, the IC50 was “inactive”.
c1cc(-n2cnc3c(Nc4ccc(N5CCOCC5)cc4)nc(NCc4ccc5c(c4)OCO5)nc32)cs1 was tested, and the IC50 was > 19.9 µM (inactive).
With FC(F)(F)c1ccc(Cn2cnc3c(Nc4ccc(N5CCOCC5)cc4)nc(N4CCN(Cc5ccc6c(c5)OCO6)CC4)nc32)cc1 the IC50 was “inactive”.
With COc1cc2nc(Nc3cccc(N(C)C)c3)nc(NCc3cccc(C(F)(F)F)c3)c2cc1OC the IC50 was > 18.9 µM (inactive).
CC(C)n1cnc2c(Nc3ccc(Oc4ccccc4)cc3)nc(N3CCOCC3)nc21 was tested, and the IC50 was “inactive”.
With c1nc(Nc2ccc(N3CCOCC3)cc2)c2[nH]c(N3CCN(Cc4ccc5c(c4)OCO5)CC3)nc2n1 the IC50 was > 13.8 µM (inactive).
With O=C(Cc1cn(-c2ccc(N3CCN(Cc4ccc5c(c4)OCO5)CC3)nn2)c2ccccc12)Nc1ccc(N2CCOCC2)cc1 the IC50 was > 20 µM (inactive).
In the case of COc1ccc(CCNc2nc(Nc3ccc(N4CCOCC4)cc3)ncc2C)cc1, the IC50 is reported as “inactive”.
With FC(F)(F)c1ccc(Cn2cnc3c(NCc4ccccc4)nc(Nc4ccccc4)nc32)cc1 the IC50 was > 20.1 µM (inactive).
In the case of Nc1nc(Nc2ccc(N3CCOCC3)cc2)cc(NC2CCN(Cc3ccccc3)CC2)n1, the IC50 is reported as > 23.1 µM (inactive).
For Nc1nc(Nc2ccc(N3CCOCC3)cc2)cc(-c2ccc3[nH]ccc3c2)n1, the IC50 was 8.21 µM.
With COc1cc2nc(Nc3cccc(N(C)C)c3)nc(Nc3cc(OC)c(OC)c(OC)c3)c2cc1OC the IC50 was > 19 µM (inactive).
For COc1cc2nc(Nc3ccc(N4CCOCC4)cc3)nc(NCCOc3ccccc3)c2cc1OC, the IC50 was “inactive”.
In the case of CC(C)n1cnc2c(Nc3ccc4c(c3)OCO4)nc(NCc3ccc4c(c3)OCO4)nc21, the IC50 is reported as “inactive”.
For COc1cc2nc(Nc3nccc4ccccc34)nc(Nc3ccc(N4CCOCC4)cc3)c2cc1OC, the IC50 was “inactive”.
For Nc1cc(C2=C3C=CN=C3C(=O)NCC2)c(O)[nH]1, the IC50 was > 19.2 µM (inactive).
With Cc1nc(C)n(-c2ccc(Nc3nccc(-c4cccc(-n5nccn5)c4)n3)cc2)n1 the IC50 was > 19.2 µM (inactive).
With Cc1cc(Nc2ccc(N3CCOCC3)cc2)nc(N2CCN(Cc3ccc4c(c3)OCO4)CC2)n1 the IC50 was “inactive”.
For c1cnc2ccc(Nc3nc(Nc4ccc(N5CCOCC5)cc4)c4[nH]cnc4n3)cc2c1, the IC50 was “inactive”.
In the case of Cn1cc(-c2ccc3cnc(Nc4ccc(-n5cnc(N6CCOCC6)n5)cc4)nc3c2)cn1, the IC50 is reported as > 19.2 µM (inactive).
In the case of c1ccc2c(c1)OCC(c1nc(N3CCOCC3)c3cc(-c4cn[nH]c4)ccc3n1)O2 (stereo not given), the IC50 is reported as > 19.2 µM (inactive).
O=C(NC1CC1)c1ccc(-c2nc(NCc3cccc(C(F)(F)F)c3)c3ncn(-c4ccccc4)c3n2)cc1 was tested, and the IC50 was > 19.9 µM (inactive).
COc1ccc(CCNc2nc(Nc3cccc(N(C)C)c3)nc3c2ncn3C(C)C)cc1 was tested, and the IC50 was > 20 µM (inactive).
In the case of FC(F)(F)c1cccc(CNc2nc(N3CCN(Cc4ccc5c(c4)OCO5)CC3)nc3c2ncn3-c2ccccc2)c1, the IC50 is reported as > 20.1 µM (inactive).
COc1cc2nc(Nc3nc4ccccc4n3C)nc(Nc3ccc(NC(C)=O)cc3)c2cc1OC gave an IC50 of 4.33 µM.
With Cc1cc(Nc2ccc(N3CCOCC3)cc2)nc(N2CCc3ccccc3C2)n1 the IC50 was “inactive”.
In the case of c1ccc(N2CCN(c3nc(Nc4ccc(N5CCOCC5)cc4)c4ncn(-c5ccsc5)c4n3)CC2)nc1, the IC50 is reported as “inactive”.
With CCCNc1nc(Nc2ccc(N3CCOCC3)cc2)nc2c1ncn2C1CCCCC1 the IC50 was “inactive”.
With c1ccc(-c2ncn[nH]2)c(Nc2ccnc(Nc3ccc(N4CCOCC4)cc3)c2)c1 the IC50 was > 19.2 µM (inactive).
For COc1cc(Nc2nc(Nc3ccc(N4CCOCC4)cc3)c3ncn(Cc4ccc(C(F)(F)F)cc4)c3n2)cc(OC)c1OC, the IC50 was “inactive”.
With COc1cc2nc(Nc3ccc(N4CCOCC4)cc3)nc(Nc3ccc(OCCN4CCCCC4)cc3)c2cc1OC the IC50 was > 17.5 µM (inactive).
In the case of Cc1cc(NCCc2ccc(O)cc2)nc(Nc2cccc(N(C)C)c2)n1, the IC50 is reported as “inactive”.
